pIC50: −log10 of the molar value.
Assays:
Type in all cases: cell-based
[1] = tested on: KRAS G12D mutant human lung cancer cell A427; assay: 3D cell proliferation inhibition assay, A427; details: A-427, 168 h, A427, 7 days, CTG
Text: (§1) The inhibitory effects of the compounds on 3D cell proliferation were investigated on KRAS G12D mutant human lung cancer cell A427, KRAS G12D mutant human gastric cancer cell AGS, KRAS G12D mutant human metastatic pancreatic cancer cell AsPc-1, KRAS G12D mutant human pancreatic cancer cell Panc 04.03, KRAS G12D mutant human pancreatic cancer cell HPAC, KRAS G12V mutant human lung squamous cell carcinoma cell SW900, and KRAS WT human gastric cancer cell MKN1. The specific procedures were as follows:
(§2) 10 μL of each compound solution diluted in a gradient was added to corresponding wells of a 96-well low-adsorption microplate (PerkinElmer), so that the final concentrations of the test compounds in the reaction system were in a range of 10000-0.026 nM. The final concentration of DMSO was 0.2%. Then 90 µL of cells were correspondingly seeded into each well to achieve a cell density of 5×10^2 cells/well (the cell density of SW900 was 5×10^1 cells/well, and the cell density of MKN1 was 1×10^3 cells/well). In addition to test wells for the test compounds, both a DMSO control well and a medium control well were set, with the DMSO control well containing DMSO and cells and the medium well containing only a medium. After the sample loading, the 96-well low-adsorption microplate was incubated in an incubator at 37° C. with 5% carbon dioxide for 7 days. After 7 days, the microplate was taken out, and 100 μL of CTG reagent (Promega) was added to each well. The plate was incubated at room temperature for 60 min and read on a microplate reader EnVision by the chemiluminescence program. The inhibition rates of the compounds at each concentration were calculated using the formula for the percentage inhibition of cell proliferation: inhibition rate %=(mean value of DMSO control group−single concentration reading value of compound)/(mean value of DMSO control group−mean value of medium control group)×100. Then non-linear curve fittings for logarithmic concentration-inhibition rate were performed by GraphPad Prism 8, and the IC50 values of the compounds were obtained (Table 5).

[2] = target: T1, KRAS-G12D (Homo sapiens, UniProt P01116, G12D); assay: KRAS-G12D degradation assay (Western Blot), A-427 cells; details: A427 cells, 24 h; for Dmax: A-427
T1 construct: endogenous in cells; host or cells: A-427 (ATCC), AGS, AsPc-1, Panc 04.03
T1 sequence (P01116 1-188 isoform P01116-2 G12D): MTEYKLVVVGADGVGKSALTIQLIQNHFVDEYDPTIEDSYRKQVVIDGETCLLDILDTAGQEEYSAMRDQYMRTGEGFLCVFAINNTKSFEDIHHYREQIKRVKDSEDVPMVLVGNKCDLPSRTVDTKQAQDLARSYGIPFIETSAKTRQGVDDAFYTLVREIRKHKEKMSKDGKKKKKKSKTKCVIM
Procedure: The degradation effects of the compounds on KRAS-G12D were investigated on KRAS G12D mutant human lung cancer cell A-427 (ATCC), KRAS G12D mutant human gastric cancer cell AGS, KRAS G12D mutant human metastatic pancreatic cancer cell AsPc-1, and KRAS G12D mutant human pancreatic adenocarcinoma cell Panc 04.03. The specific procedures were as follows: 0.95 mL of cells were seeded into each well of a 24-well cell culture plate to achieve a cell density of 5×10^5 cells/well; and the cell plate was incubated in an incubator at 37° C. with 5% CO2 overnight. Then 50 μL of the compound solution after dilution was added to each of the wells with the corresponding cells, so that the final concentration of the compound was in a range of 0.03-3000 nM. The final concentration of DMSO was 0.25%. After the compounds were added, the cell plate was incubated in the incubator at 37° C. with 5% CO2 for 24 h. The culture medium in the 24-well cell culture plate was removed, and the plate was washed twice with 1×PBS (KeyGEN). 120 μL of RIPA (strong) lysis buffer (Beyotime) supplemented with 1 mM phenylmethylsulfonyl fluoride, a protease inhibitor mixture (Beyotime), and a protease phosphatase inhibitor mixture (Beyotime) was added to lyse adherent A-427 cells at the bottom of the cell culture plate. After the plate was left to stand on ice for 30 min, the protein lysate in each well was transferred to a 1.5 mL centrifuge tube and centrifuged at 15000 g for 20 min at 4° C. The cell lysate supernatants after centrifugation were cryopreserved in a refrigerator at −80° C. for later use.
After the samples of the cell lysate supernatants that had been prepared were thawed from the refrigerator at −80° C., the total protein concentrations of the cell lysates were determined using a BCA protein quantification kit (Tiangen). The total protein concentrations of the samples were then adjusted to 0.5 μg/μL with PBS and 5×SDS-PAGE protein loading buffer (Beyotime), and the samples were incubated in a water bath at 100° C. for 15 min. The samples were then incubated in an ice bath for 5 min and centrifuged at 14000 g for 1 min at 4° C., and the supernatants were mixed well as loading samples for the Western Blot assay. The samples were loaded into wells of a 10% precast gel (KeyGEN) with a loading volume of 10 μL (total protein: 5 μg), a sufficient Tris-MOPS-SDS running buffer (Adamas) was added, and then electrophoresis was performed at a constant voltage of 120 V for 55 min. After the electrophoresis, the proteins on the gel were transferred to PVDF membranes at a constant current of 250 mA for 55 min. After the membrane transfer, the PVDF membranes were incubated in 1× Quick Block blocking buffer (Beyotime) at room temperature for 30 min. After the blocking, the PVDF membranes were separately incubated at 4° C. overnight with the KRAS antibody (Abcam) diluted in a ratio of 1:1000 and the […] antibody (Abcam) diluted in a ratio of 1:2000 in 5% BSA as the diluent, and then washed with 1×TBST buffer (2.4 g of Tris, 8.8 g of NaCl, 1.5 mL of Tween 20, with pH adjusted to 7.4, with the volume brought to 1 L) 3 times for 10 min/time. The membranes were incubated with a secondary antibody (Abcam) diluted in 5% BSA at room temperature for 2 h, and then washed with 1×TBST buffer 3 times for 10 min/time. Finally, the membranes were incubated with Clarity Western ECL Substrate (BIO-RAD) for 5 min for luminescence and color development, and a ChemiScope 6200 Touch chemiluminescence imaging system (Clinx) was used for color development and protein mapping. Gray value analysis of the protein maps was performed using the chemiluminescence analysis software (Clinx). The gray correction value for each sample was calculated using the formula: gray correction value=(gray value of target protein/gray value of corresponding internal reference)×10^3. Then degradation rates were calculated by comparison with the gray correction value of the control group. […]

[3] = tested on: KRAS G12D mutant human gastric cancer cell AGS; assay: 3D cell proliferation inhibition assay, AGS; details: 168 h, 7 days, CTG
Text: as §1, §2

In the case of CCc1c(F)ccc2cc(O)cc(-c3ncc4c(N5CC6CCC(C5)N6)nc(OCC5(CN6CCN(CC7CCC8(CC7)CCN(C(=O)c7ccc(C)c(N9CCC(=O)NC9=O)c7)CC8)CC6)CC5)nc4c3F)c12 [Example 37, 1-(5-(9-((4-((1-(((4-(3,8-diazabicyclo[3.2.1]octan-3-yl)-7-(8-ethyl-7-fluoro-3-hydroxynaphthalen-1-yl)-8-fluoropyrido[4,3-d]pyrimidin-2-yl)oxy)methyl)cyclopropyl)methyl)piperazin-1-yl)methyl)-3-azaspiro[5.5]undecane-3-carbonyl)-2-methylphenyl)dihydropyrimidine-2,4(1H,3H)-dione], the pIC50 ([1]; class symbols) was 6.30 to 7.00, the DC50 ([2]; class symbols) was no more than 50 nM and the Dmax ([2]; class symbols) was 80 to 100%. It also gave a pIC50 ([3]; class symbols) of no less than 7.30.
In the case of C#Cc1cccc2cc(O)cc(-c3ccc4c(N5CC6CCC(C5)N6)nc(OCC5(CN6CCN(CC7CCC8(CC7)CCN(C(=O)c7ccc(OC)c(N9CCC(=O)NC9=O)c7)CC8)CC6)CC5)nc4c3F)c12 [Example 76, 1-(5-(9-((4-((1-(((4-(3,8-diazabicyclo[3.2.1]octan-3-yl)-7-(8-ethynyl-3-hydroxynaphthalen-1-yl)-8-fluoroquinazolin-2-yl)oxy)methyl)cyclopropyl)methyl)piperazin-1-yl)methyl)-3-azaspiro[5.5]undecane-3-carbonyl)-2-methoxyphenyl)dihydropyrimidine-2,4(1H,3H)-dione], the pIC50 ([1]; numeric values) was 7.13, the DC50 ([2]; numeric values) was 1.74 nM and the Dmax ([2]; numeric values) was 89.3%. For the same molecule, the pIC50 ([3]; numeric values) was 8.02.
For C#Cc1c(F)ccc2cc(O)cc(-c3ncc4c(N5CC6CCC(C5)N6)nc(OCC5(CN6CCN(CC7CCC8(CC7)CCN(C(=O)c7ccc(F)c(N9CCC(=O)NC9=O)c7)CC8)CC6)CC5)nc4c3F)c12 [Example 48, 1-(5-(9-((4-((1-(((4-(3,8-diazabicyclo[3.2.1]octan-3-yl)-7-(8-ethynyl-7-fluoro-3-hydroxynaphthalen-1-yl)-8-fluoropyrido[4,3-d]pyrimidin-2-yl)oxy)methyl)cyclopropyl)methyl)piperazin-1-yl)methyl)-3-azaspiro[5.5]undecane-3-carbonyl)-2-fluorophenyl)dihydropyrimidine-2,4(1H,3H)-dione], the pIC50 ([1]; class symbols) was no less than 7.30, the DC50 ([2]; class symbols) was no more than 50 nM and the Dmax ([2]; class symbols) was 80 to 100%. For the same molecule, the pIC50 ([3]; class symbols) was no less than 7.30.
CCc1cccc2cc(O)cc(-c3ccc4c(N5CC6CCC(C5)N6)nc(OCC5(CN6CCN(CC7CCC8(CC7)CCN(C(=O)c7ccc(Cl)c(N9CCC(=O)NC9=O)c7)CC8)CC6)CC5)nc4c3F)c12 [Example 62, 1-(5-(9-((4-((1-(((4-(3,8-diazabicyclo[3.2.1]octan-3-yl)-7-(8-ethyl-3-hydroxynaphthalen-1-yl)-8-fluoroquinazolin-2-yl)oxy)methyl)cyclopropyl)methyl)piperazin-1-yl)methyl)-3-azaspiro[5.5]undecane-3-carbonyl)-2-chlorophenyl)dihydropyrimidine-2,4(1H,3H)-dione] showed a pIC50 ([1]; numeric values) of 7.88, a DC50 ([2]; numeric values) of 15.8 nM and a Dmax ([2]; numeric values) of 94.8%. It also gave a pIC50 ([3]; numeric values) of 8.30.
With C#Cc1c(F)ccc2cc(O)cc(-c3ncc4c(N5CC6CCC(C5)N6)nc(NCC5(CN6CCN(CC7CCC8(CC7)CCN(C(=O)c7ccc(C)c(N9CCC(=O)NC9=O)c7)CC8)CC6)CC5)nc4c3F)c12 [Example 44, 1-(5-(9-((4-((1-(((4-(3,8-diazabicyclo[3.2.1]octan-3-yl)-7-(8-ethynyl-7-fluoro-3-hydroxynaphthalen-1-yl)-8-fluoropyrido[4,3-d]pyrimidin-2-yl)amino)methyl)cyclopropyl)methyl)piperazin-1-yl)methyl)-3-azaspiro[5.5]undecane-3-carbonyl)-2-methylphenyl)dihydropyrimidine-2,4(1H,3H)-dione] the pIC50 ([1]; class symbols) was 6.30 to 7.00, the DC50 ([2]; class symbols) was no more than 50 nM and the Dmax ([2]; class symbols) was 80 to 100%. The pIC50 ([3]; class symbols) was no less than 7.30.
CCc1c(F)ccc2cc(O)cc(-c3ccc4c(N5CC6CCC(C5)N6)nc(OCC5(CN6CCN(CC7CCC8(CC7)CCN(C(=O)c7ccc(Cl)c(N9CCC(=O)NC9=O)c7)CC8)CC6)CC5)nc4c3F)c12 [Example 74, 1-(5-(9-((4-((1-(((4-(3,8-diazabicyclo[3.2.1]octan-3-yl)-7-(8-ethyl-7-fluoro-3-hydroxynaphthalen-1-yl)-8-fluoroquinazolin-2-yl)oxy)methyl)cyclopropyl)methyl)piperazin-1-yl)methyl)-3-azaspiro[5.5]undecane-3-carbonyl)-2-chlorophenyl)dihydropyrimidine-2,4(1H,3H)-dione] showed a pIC50 ([1]; numeric values) of 7.50, a DC50 ([2]; numeric values) of 38.1 nM and a Dmax ([2]; numeric values) of 77%. It also gave a pIC50 ([3]; numeric values) of 7.80.
